Assays:
Assay type in all cases: cell-based
IKZF1 = biological target: T1, IKZF1 (Homo sapiens, UniProt Q13422+Q96SW2); test: HEK293 HiBiT in vitro degradation of IKZF1; conditions: for Dmax: HEK293, HEK293 HiBiT; for DC50: 18-24 hr incubation, normalized to DMSO control, read-out: IKZF1 EC50
T1 construct: expressed in transfected cells
Method in brief: (§1)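 Stable HEK293 reporter pools, each with one integrated tet-inducible copy of a HiBiT-tagged target, were induced with doxycycline overnight at 37 °C. After 18-24 h with compound dilution series, Nano-Glo lysis and luminescence yielded EC50 and Dmax values.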

IKZF2 [1] = biological target: T2, IKZF2 (Homo sapiens, UniProt Q96SW2+Q9UKS7); test: Human whole blood IKZF2 degradation (flow cytometry, CD4/CD25/Foxp3+ Treg cells); parameters: endogenous in cells; conditions: 24 hrs incubation, IKZF2 MFI in CD4/CD25/Foxp3+ Treg cells, flow cytometry; for DC50: read-out: IKZF2 EC50
Procedure: In vitro IKZF2 potency was assessed in human whole blood using a fluorescence activated cell sorting assay. 50 μL of freshly collected blood from healthy human volunteers was incubated with Immunocult CD3/CD28 activator (Stemcell Technologies) and solution of testing compounds (serially-diluted) for 24 hrs hours at 37° C. in 384 well plates. The treated red blood cells were removed by adding lysis buffer (BD cat #558049) then the cells were fixed, permeabilized, and stained with anti-CD4 (BD cat #564419), anti-Foxp3 (Invitrogen cat #48-4777-42), anti-IKZF1 (Cell Signaling Tech. cat #33462S), and anti-IKZF2(Cell Signaling Tech. cat #65432S) antibodies. The median fluorescent intensity (MFI) of IKZF2 signal from CD4/CD25/Foxp3+ Treg cells and MFI of IKZF1 signal from CD4+ T cells were quantified in the same samples by flow cytometry using an Attune instrument. EC50 and Dmax of each compound was determined by plotting the MFI and DMSO treated wells were used as control. Asterisks (*) indicate examples for which data represents an average of n≥3 repeat experiments.
Target sequence in this assay (Q9UKS7 whole entry): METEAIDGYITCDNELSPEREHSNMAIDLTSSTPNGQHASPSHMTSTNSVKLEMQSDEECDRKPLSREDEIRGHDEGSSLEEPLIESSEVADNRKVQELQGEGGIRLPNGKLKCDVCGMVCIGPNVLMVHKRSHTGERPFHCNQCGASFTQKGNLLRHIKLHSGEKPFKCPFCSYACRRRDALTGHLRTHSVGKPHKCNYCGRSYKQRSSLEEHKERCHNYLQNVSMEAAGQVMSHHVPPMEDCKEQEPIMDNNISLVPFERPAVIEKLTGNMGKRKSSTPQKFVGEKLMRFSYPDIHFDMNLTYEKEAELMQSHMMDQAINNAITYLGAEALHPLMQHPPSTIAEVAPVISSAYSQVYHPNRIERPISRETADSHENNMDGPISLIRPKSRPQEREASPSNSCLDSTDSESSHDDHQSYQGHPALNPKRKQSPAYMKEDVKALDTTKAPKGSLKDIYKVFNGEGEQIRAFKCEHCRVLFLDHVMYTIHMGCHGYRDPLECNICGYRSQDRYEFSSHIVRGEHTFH
Target sequence in this assay (Q96SW2 whole entry): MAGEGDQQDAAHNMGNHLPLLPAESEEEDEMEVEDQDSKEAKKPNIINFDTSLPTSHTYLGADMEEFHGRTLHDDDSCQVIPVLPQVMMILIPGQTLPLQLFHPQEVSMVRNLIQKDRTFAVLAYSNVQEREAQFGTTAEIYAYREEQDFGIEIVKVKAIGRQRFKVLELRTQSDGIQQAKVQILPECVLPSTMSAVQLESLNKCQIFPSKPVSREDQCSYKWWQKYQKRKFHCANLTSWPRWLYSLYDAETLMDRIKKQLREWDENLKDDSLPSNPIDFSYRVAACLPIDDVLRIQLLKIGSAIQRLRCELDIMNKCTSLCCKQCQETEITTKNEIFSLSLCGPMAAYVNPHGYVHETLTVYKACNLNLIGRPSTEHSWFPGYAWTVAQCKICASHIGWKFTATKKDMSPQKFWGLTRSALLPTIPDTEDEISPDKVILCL
Target sequence in this assay (Q16531 whole entry partner): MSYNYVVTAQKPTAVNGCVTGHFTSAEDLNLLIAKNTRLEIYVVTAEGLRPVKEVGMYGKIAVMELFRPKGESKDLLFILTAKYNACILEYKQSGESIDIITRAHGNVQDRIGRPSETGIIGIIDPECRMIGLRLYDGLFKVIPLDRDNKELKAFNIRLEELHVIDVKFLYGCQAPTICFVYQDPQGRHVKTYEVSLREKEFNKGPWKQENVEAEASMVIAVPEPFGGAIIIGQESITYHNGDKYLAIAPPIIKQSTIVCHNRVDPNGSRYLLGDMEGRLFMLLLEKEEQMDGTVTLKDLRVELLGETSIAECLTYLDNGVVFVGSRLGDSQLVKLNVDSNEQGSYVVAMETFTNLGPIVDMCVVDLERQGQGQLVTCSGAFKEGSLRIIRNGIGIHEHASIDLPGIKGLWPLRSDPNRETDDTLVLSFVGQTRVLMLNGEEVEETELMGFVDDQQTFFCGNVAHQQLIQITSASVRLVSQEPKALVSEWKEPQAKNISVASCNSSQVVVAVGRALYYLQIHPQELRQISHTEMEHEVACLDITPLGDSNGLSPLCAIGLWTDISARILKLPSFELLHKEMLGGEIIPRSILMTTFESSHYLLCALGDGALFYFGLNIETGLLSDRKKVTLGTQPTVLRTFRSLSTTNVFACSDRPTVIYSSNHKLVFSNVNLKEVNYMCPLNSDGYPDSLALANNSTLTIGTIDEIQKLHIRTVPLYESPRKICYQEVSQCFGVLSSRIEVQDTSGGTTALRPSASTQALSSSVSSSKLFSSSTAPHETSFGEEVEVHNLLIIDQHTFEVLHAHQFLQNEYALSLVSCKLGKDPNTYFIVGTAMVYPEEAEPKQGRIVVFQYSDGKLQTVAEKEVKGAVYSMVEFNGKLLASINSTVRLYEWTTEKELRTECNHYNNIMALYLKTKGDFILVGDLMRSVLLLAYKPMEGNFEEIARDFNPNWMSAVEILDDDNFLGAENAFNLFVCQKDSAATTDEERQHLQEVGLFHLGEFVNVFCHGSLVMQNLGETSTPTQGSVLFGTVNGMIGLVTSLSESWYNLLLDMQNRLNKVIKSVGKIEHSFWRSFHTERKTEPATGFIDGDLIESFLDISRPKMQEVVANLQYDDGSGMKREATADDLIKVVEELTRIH

IKZF2 [2] = biological target: T2, IKZF2; test: HEK293 HiBiT in vitro degradation of IKZF2; parameters: expressed in transfected cells; conditions: for Dmax: HEK293, HEK293 HiBiT; for Dmax / IKZF2 Dmax: maximum degradation at the highest concentration tested; for DC50 / IKZF2 Dmax: HEK293 HiBiT; for DC50: 18-24 hr incubation, normalized to DMSO control, read-out: IKZF2 EC50
Method in brief: as §1
Target sequence in this assay (Q9UKS7 1-500 isoform Q9UKS7-2): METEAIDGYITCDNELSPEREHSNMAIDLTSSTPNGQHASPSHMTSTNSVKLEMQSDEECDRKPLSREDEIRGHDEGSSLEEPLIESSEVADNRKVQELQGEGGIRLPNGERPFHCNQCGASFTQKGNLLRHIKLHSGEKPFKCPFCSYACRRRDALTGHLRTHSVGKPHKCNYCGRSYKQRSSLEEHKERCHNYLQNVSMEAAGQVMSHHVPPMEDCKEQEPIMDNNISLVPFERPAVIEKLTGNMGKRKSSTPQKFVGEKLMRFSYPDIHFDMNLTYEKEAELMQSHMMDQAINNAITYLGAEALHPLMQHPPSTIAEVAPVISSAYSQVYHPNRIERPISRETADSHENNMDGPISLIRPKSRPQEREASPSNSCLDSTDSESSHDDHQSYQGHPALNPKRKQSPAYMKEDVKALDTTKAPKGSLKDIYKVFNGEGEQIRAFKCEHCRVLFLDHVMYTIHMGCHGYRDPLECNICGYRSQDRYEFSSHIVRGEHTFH
Target sequence in this assay (Q96SW2 whole entry): as the sequence (Q96SW2 whole entry) above
Target sequence in this assay (Q16531 whole entry partner): as the sequence (Q16531 whole entry partner) above

[3] = maximum degradation at the highest concentration tested

T1 sequence (Q13422 whole entry): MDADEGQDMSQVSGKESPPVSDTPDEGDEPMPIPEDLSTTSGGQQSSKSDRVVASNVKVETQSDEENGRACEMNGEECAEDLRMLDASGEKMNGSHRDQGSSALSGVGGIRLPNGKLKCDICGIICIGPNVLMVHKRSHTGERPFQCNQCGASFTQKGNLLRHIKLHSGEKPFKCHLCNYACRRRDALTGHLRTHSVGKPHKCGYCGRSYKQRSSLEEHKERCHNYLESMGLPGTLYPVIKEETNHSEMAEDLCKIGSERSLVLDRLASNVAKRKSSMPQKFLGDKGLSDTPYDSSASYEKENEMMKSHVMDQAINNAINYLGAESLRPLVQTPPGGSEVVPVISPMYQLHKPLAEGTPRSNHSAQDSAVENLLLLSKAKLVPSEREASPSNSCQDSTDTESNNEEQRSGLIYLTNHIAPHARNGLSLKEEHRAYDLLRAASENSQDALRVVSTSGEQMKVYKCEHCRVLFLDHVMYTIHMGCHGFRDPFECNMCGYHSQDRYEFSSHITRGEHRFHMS
T1 sequence (Q96SW2 whole entry): as the sequence (Q96SW2 whole entry) above
T1 sequence (Q16531 whole entry partner): as the sequence (Q16531 whole entry partner) above

Dmax (IKZF1; [3]) [%]	DC50 (IKZF1; HEK293 HiBiT) [µM]	Dmax (IKZF2 [1]) [%]	DC50 (IKZF2 [1]) [µM]	Dmax (IKZF2 [2]) [%]	DC50 (IKZF2 [2]) [µM]	IKZF2 Dmax (IKZF2 [2]) [%]	IKZF1 Dmax (IKZF1; HEK293 HiBiT, maximum degradation at the highest concentration tested) [%]	Compound
28	0.327	89	0.004	94	0.007			CC1(C)CC(N[C@H]2CCCC[C@@H]2Cc2ccc3c(c2)CN(C2CCC(=O)NC2=O)C3=O)C1 (stereo partly drawn) [Example 82, 3-(5-(((1R,2S)-2-((3,3-dimethylcyclobutyl)amino)cyclohexyl)methyl)-1-oxoisoindolin-2-yl)piperidine-2,6-dione]
34	0.103	97	0.001	96	0.005			CC1(C)CC(N[C@H]2CCCC[C@@H]2Cc2ccc3c(c2)CN(C2CCC(=O)NC2=O)C3=O)CCO1 (stereo partly drawn) [Example 109]
	> 1	95	0.01					CC(N[C@H]1CCCC[C@@H]1Cc1ccc2c(c1)CN(C1CCC(=O)NC1=O)C2=O)C1(C#N)CC1 (single isomer, unassigned) [Example 256]
	> 0.5			90	0.027			O=C1CCC(N2Cc3cc(C[C@H]4CCC[C@H](O)[C@@H]4NC4CCCCC4)ccc3C2=O)C(=O)N1 (relative stereo) [Example 310, 3-(5-(((1R,2R,3S)-rel-2-(cyclohexylamino)-3-hydroxycyclohexyl)methyl)-1-oxoisoindolin-2-yl)piperidine-2,6-dione]
36	0.045			71	0.046			O=C1CCC(N2Cc3c(ccc(C[C@H]4OCCC[C@@H]4NCC4CCC(F)(F)CC4)c3F)C2=O)C(=O)N1 (stereo partly drawn) [Example 149]
	> 1			92	0.037			O=C1CCC(N2Cc3cc(C[C@H]4CCCC[C@@H]4NCC45CCC(CC4)CC5)ccc3C2=O)C(=O)N1 (stereo partly drawn) [Example 83, 3-(5-(((1R,2S)-2-((bicyclo[2.2.2]octan-1-ylmethyl)amino)cyclohexyl)methyl)-1-oxoisoindolin-2-yl)piperidine-2,6-dione]
42	0.226			93	0.058			O=C1CCC(N2Cc3cc(C[C@H]4C[C@@H](O)CC[C@@H]4NC4CCC(F)(F)CC4)ccc3C2=O)C(=O)N1 (stereo partly drawn) [Example 162]
	> 1			76	0.148			CC(N[C@H]1CCCC[C@@H]1Cc1ccc2c(c1)CN(C1CCC(=O)NC1=O)C2=O)C(F)F (stereo partly drawn) [Example 130]
	> 1			88	0.027			O=C1CCC(N2Cc3cc(C[C@H]4CC(F)(F)CC[C@@H]4NC4CCCCC4)ccc3C2=O)C(=O)N1 (stereo partly drawn) [Example 313, 3-(5-(((1S,2S)-2-(cyclohexylamino)-5,5-difluorocyclohexyl)methyl)-1-oxoisoindolin-2-yl)piperidine-2,6-dione]
	> 1				0.002	94		CC(N[C@H]1CCCC[C@@H]1Cc1ccc2c(c1)CN(C1CCC(=O)NC1=O)C2=O)C1(C)CCC1 (stereo partly drawn) [Example 207]
42	0.089			92	0.011			CC(N[C@H]1CC(F)(F)CC[C@@H]1Cc1ccc2c(c1)CN(C1CCC(=O)NC1=O)C2=O)C1CCOCC1 (stereo partly drawn) [Example 349]
	> 1			98	0.006			CC(C)CC(C)N[C@H]1CCCC[C@@H]1Cc1ccc2c(c1)CN(C1CCC(=O)NC1=O)C2=O (stereo partly drawn) [Example 185]
34	0.043			94	0.009			CC(C)(CCN[C@H]1CCCC[C@@H]1Cc1ccc2c(c1)CN(C1CCC(=O)NC1=O)C2=O)C(F)(F)F (stereo partly drawn) [Example 182]
36	0.077			97	0.002			CC(C)OC1CCC(N[C@H]2CCCC[C@@H]2Cc2ccc3c(c2)CN(C2CCC(=O)NC2=O)C3=O)CC1 (single isomer, unassigned) [Example 167]
	0.044				0.002	98	34	O=C1CCC(N2Cc3c(ccc(C[C@H]4CCCC[C@@H]4NC4CCOCC4)c3F)C2=O)C(=O)N1 (stereo partly drawn) [Example 188]
	> 1			94	0.009			O=C1CCC(N2Cc3cc(C[C@H]4CCCC[C@@H]4NC4CCCCC45CC5)ccc3C2=O)C(=O)N1 (stereo partly drawn) [Example 228]

Dmax (IKZF1; [3]) [%]	DC50 (IKZF1; HEK293 HiBiT) [µM]	Dmax (IKZF2 [1]) [%]	DC50 (IKZF2 [1]) [µM]	Dmax (IKZF2 [2]) [%]	DC50 (IKZF2 [2]) [µM]	IKZF2 Dmax (IKZF2 [2]) [%]	IKZF1 Dmax (IKZF1; HEK293 HiBiT, maximum degradation at the highest concentration tested) [%]	Compound
	> 10				0.016	88		O=C1CCC(N2Cc3cc(C[C@H]4OCCC[C@@H]4NC4CCCCC4)ccc3C2=O)C(=O)N1 (stereo partly drawn) [Example 179]
41	0.028			96	0.004			O=C1CCC(N2Cc3c(ccc(C[C@H]4CCCC[C@@H]4NCC4CC(F)(F)C4)c3F)C2=O)C(=O)N1 (stereo partly drawn) [Example 81, 3-(5-(((1R,2S)-2-(((3,3-difluorocyclobutyl)methyl)amino)cyclohexyl)methyl)-4-fluoro-1-oxoisoindolin-2-yl)piperidine-2,6-dione]
	> 1			85	0.072			O=C1CCC(N2Cc3c(ccc(C[C@H]4OCCC[C@@H]4NC4CCCOC4)c3F)C2=O)C(=O)N1 (single isomer, unassigned) [Example 262]
	> 1			97	0.192			Cn1ccc(CN[C@H]2CCCC[C@@H]2Cc2ccc3c(c2)CN(C2CCC(=O)NC2=O)C3=O)n1 (stereo partly drawn) [Example 38, 3-(5-(((1R,2S)-2-(((1-methyl-1H-pyrazol-3-yl)methyl)amino)cyclohexyl)methyl)-1-oxoisoindolin-2-yl)piperidine-2,6-dione]
	> 1				0.008	97		O=C1CCC(N2Cc3cc(C[C@H]4CCCC[C@@H]4NC4CCCCC45CC5)ccc3C2=O)C(=O)N1 (stereo partly drawn) [Example 229]
	> 1			96	0.023			CCCC(CCC)N[C@H]1CCCC[C@@H]1Cc1ccc2c(c1)CN(C1CCC(=O)NC1=O)C2=O (stereo partly drawn) [Example 166]
37	0.075			92	0.016			O=C1CCC(N2Cc3cc(C[C@H]4CCCC[C@@H]4NCCC(F)(F)F)ccc3C2=O)C(=O)N1 (stereo partly drawn) [Example 104]
37	0.068			94	0.014			O=C1CCC(N2Cc3c(ccc(C[C@H]4CCCC[C@@H]4NCC4CCC(F)(F)CC4)c3F)C2=O)C(=O)N1 (stereo partly drawn) [Example 99]
47	0.16			97	0.017			O=C1CCC(N2Cc3cc(C[C@H]4CCCC[C@@H]4NC4CCS(=O)(=O)CC4)ccc3C2=O)C(=O)N1 (stereo partly drawn) [Example 91, 3-(5-(((1R,2S)-2-((1,1-dioxidotetrahydro-2H-thiopyran-4-yl)amino)cyclohexyl)methyl)-1-oxoisoindolin-2-yl)piperidine-2,6-dione]
	> 1			92	0.353			O=C1CCC(N2Cc3c(ccc(C[C@H]4CCCC[C@@H]4N(Cc4ccccc4)Cc4ccccc4)c3F)C2=O)C(=O)N1 (stereo partly drawn) [Example 5, 3-(5-(((1R,2S)-2-(dibenzylamino)cyclohexyl)methyl)-4-fluoro-1-oxoisoindolin-2-yl)piperidine-2,6-dione]
	> 1			91	0.019			O=C1CCC(N2Cc3cc(C[C@H]4CCCC[C@@H]4NCC4CCOC4)ccc3C2=O)C(=O)N1 (stereo partly drawn) [Example 69]
27	0.242			96	0.006			CC(N[C@H]1CCCC[C@@H]1Cc1ccc2c(c1)CN(C1CCC(=O)NC1=O)C2=O)C1CC1 (stereo partly drawn) [Example 102]
	> 1				0.101	84		O=C1CCC(N2Cc3c(ccc(C[C@H]4OCCC[C@@H]4NC4CCOC4)c3F)C2=O)C(=O)N1 (single isomer, unassigned) [Example 297]
45	0.066			97	0.004			O=C1CCC(N2Cc3cc(C[C@H]4CCCC[C@@H]4NC4CC5CCC5C4)ccc3C2=O)C(=O)N1 (stereo partly drawn) [Example 132]
	> 1			96	0.024			O=C1CCC(N2Cc3cc(C[C@H]4CCCC[C@@H]4NC4CCC4)ccc3C2=O)C(=O)N1 (stereo partly drawn) [Example 48, 3-(5-(((1R,2S)-2-(cyclobutylamino)cyclohexyl)methyl)-1-oxoisoindolin-2-yl)piperidine-2,6-dione]
	> 1			89	0.037			O=C1CCC(N2Cc3cc(C[C@H]4CCCC[C@@H]4NCC4CCOCC4)ccc3C2=O)C(=O)N1 (stereo partly drawn) [Example 71]

Source: patent publication US11897862B2 (Gilead Sciences, Inc., priority 2022, dated 2024)
